Data set [1] can be described thus: AUC (0 to 6 hrs) in rat plasma at 10 mg/kg, po. It counts as ADME, organism-based. Set-up: time < 6 hr, dose 10 mg/kg, route oral.
Another data set concerns the target Gamma-secretase. The data set can be described thus: Modulation of gamma-secretase expressed in HEK293 cells co-expressing APPsw-lon assessed as reduction of amyloid-beta-42 level by sandwich immunoassay. It counts as cell-based, Homo sapiens.
Data set [2] has as its target T1, Gamma-secretase (Homo sapiens) (UniProt Q96BI3+Q9NZ42+Q8WW43+P49768+Q92542+P49810). Description: Modulation of gamma-secretase expressed in HEK293 cells co-expressing APPsw-lon assessed as reduction of total amyloid beta/amyloid-beta-42 ratio by sandwich immunoassay. Type of data set: cell-based.
Data set [3] is described as follows: Drug level in rat brain at 10 mg/kg, po after 3 hrs. Type of data set: ADME, organism-based. Set-up: dose 10 mg/kg, route oral. The settings on record: read-out: Drug uptake.
Data set [4] is described as follows: Ratio of drug level in brain to plasma rat at 10 mg/kg, po after 6 hrs. Type of data set: ADME, organism-based. Set-up: dose 10 mg/kg, route oral. The following applies: read-out: BPR.
The nature of data set [5]: Drug level in rat brain at 10 mg/kg, po after 6 hrs. Type of data set: ADME, organism-based. Also on record: dose 10 mg/kg, route oral. The settings on record: read-out: Drug uptake.
The nature of data set [6]: Plasma concentration in rat at 10 mg/kg, po after 3 hrs. Also on record: dose 10 mg/kg, route oral. Type of data set: ADME, organism-based.
Data set [7] has as its system Rattus norvegicus. The data set can be described thus: Antialzheimer's activity in rat assessed as reduction of amyloid-beta-42 level in CSF at 10 mg/kg, po after 3 hrs by AlphaLISA amyloid assay. Type of data set: functional. (In general: Bead proximity is the source of the signal in Alpha formats.)
Another data set has as its target hERG (KCNH2) (Homo sapiens, UniProt Q12809). The data set can be described thus: Inhibition of human ERG at 10 uM.
The species entered for data set [8] is Rattus norvegicus. The data set can be described thus: Toxicity in rat assessed as biomarker changes. It counts as organism-based. The settings on record: in vivo.
Data set [9] in a line: Half life in rat. It counts as ADME, organism-based. The settings on record: in vivo.
Data set [10] is described as follows: Clearance in rat. It counts as ADME, organism-based. The following applies: in vivo.
The species named for data set [11] is Rattus norvegicus. Description: Toxicity in rat assessed as Notch-related side effects. It counts as organism-based. The following applies: in vivo.
The nature of data set [12]: Volume of distribution at steady state in rat. The settings on record: in vivo, read-out: Vdss. Type of data set: ADME, organism-based.
Another data set concerns Caco-2. Description: Permeability across human Caco2 cells. Type of data set: ADME, cell-based. In general terms: Caco-2 cells form a polarised layer with tight junctions and transporters.
For data set [13], the system named is Rattus norvegicus. Description: Antialzheimer's activity in po dosed rat assessed as reduction of amyloid-beta-42 level in CSF after 3 hrs by AlphaLISA amyloid assay. Type of data set: functional, organism-based.
The target in data set [14] is T1, Gamma-secretase (Homo sapiens). The data set can be described thus: Modulation of gamma-secretase-mediated Notch processing expressed in HEK293 cells co-expressing human Notch1 protein up to 50 uM. It counts as cell-based.
Another data set is filed under the species Canis familiaris. The data set can be described thus: Cardiotoxicity in dog assessed as effect on QTc intervals. Type of data set: toxicity, organism-based, Canis lupus familiaris. The settings on record: in vivo.
A short description of data set [15]: Oral bioavailability in rat. The settings on record: in vivo. It counts as ADME, organism-based.
Data set [16] can be described thus: Activity at p-glycoprotein.
The nature of data set [17]: Inhibition of CYP450. Type of data set: ADME.
For data set [18], the target named is T2, Nuclear receptor subfamily 1 group I member 2 (Homo sapiens, UniProt O75469).
T2 sequence (O75469 whole entry): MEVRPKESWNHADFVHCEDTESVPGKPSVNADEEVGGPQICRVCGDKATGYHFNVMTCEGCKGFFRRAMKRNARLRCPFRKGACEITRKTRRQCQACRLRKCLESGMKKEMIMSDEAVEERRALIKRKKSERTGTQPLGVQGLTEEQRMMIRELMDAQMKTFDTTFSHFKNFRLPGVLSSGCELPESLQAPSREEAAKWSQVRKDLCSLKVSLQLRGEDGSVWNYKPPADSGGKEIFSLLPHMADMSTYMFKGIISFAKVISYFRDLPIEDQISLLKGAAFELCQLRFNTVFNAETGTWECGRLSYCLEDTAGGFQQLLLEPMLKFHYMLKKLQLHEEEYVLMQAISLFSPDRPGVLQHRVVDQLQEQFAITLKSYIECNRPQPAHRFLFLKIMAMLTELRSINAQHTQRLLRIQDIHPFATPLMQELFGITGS
Description: Induction of PXR.

Structures are written as SMILES. Activity calls are given as the source filed them.

hERG (KCNH2), sequence (Q12809 whole entry): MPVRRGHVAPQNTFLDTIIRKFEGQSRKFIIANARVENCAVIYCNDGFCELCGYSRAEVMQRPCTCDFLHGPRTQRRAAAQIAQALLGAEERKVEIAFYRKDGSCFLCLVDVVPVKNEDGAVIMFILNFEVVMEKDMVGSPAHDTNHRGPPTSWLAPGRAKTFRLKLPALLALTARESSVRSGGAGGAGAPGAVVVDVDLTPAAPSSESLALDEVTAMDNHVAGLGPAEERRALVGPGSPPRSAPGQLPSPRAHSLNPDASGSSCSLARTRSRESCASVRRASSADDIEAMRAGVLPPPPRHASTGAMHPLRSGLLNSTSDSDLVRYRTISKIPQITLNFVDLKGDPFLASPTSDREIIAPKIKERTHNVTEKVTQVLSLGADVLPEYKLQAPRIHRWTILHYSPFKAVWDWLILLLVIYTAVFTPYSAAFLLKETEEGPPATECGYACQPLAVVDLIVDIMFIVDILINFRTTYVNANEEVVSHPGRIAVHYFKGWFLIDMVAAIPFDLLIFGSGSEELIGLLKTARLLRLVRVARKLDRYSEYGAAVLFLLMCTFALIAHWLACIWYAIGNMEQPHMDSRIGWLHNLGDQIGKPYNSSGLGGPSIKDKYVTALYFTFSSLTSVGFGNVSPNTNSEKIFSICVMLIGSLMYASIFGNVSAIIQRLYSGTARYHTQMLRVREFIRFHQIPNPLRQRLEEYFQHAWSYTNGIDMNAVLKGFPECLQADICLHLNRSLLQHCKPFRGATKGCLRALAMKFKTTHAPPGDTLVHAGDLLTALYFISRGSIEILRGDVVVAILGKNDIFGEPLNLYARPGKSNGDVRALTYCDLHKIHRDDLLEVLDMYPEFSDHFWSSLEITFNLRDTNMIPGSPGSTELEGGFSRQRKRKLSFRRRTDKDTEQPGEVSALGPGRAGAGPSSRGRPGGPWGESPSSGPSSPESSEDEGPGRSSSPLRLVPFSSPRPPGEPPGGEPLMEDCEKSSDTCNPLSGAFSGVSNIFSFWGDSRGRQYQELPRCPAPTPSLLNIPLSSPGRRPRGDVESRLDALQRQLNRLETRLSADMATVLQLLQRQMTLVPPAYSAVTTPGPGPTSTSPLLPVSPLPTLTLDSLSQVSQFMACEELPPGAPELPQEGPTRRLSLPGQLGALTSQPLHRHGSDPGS

For the compound `COc1cc(/C=C2\CCCN3C2=NOC[C@@H]3c2ccccc2)ccc1-n1cnc(C)c1`, the AUC(0-t) – broadly, the area under the concentration-time curve up to a stated or last time point – at 6 h in data set [1] was 17.6 µM·h. Moreover, the 50% inhibitory concentration (IC50) (in general, the point on the concentration scale where inhibition reaches its midpoint) at Gamma-secretase came out at 87 nM. For the same compound, the Ratio in [2] was 210. Besides, the concentration at 3 h in data set [3] was 2.8 µM; in data set [6], 6.2 µM. In data set [4], the Kp at 6 h was found to be 0.9. In data set [5], the concentration at 6 h was 539 ng/g. Moreover, in the data set on Rattus norvegicus [7], the inhibition in vivo (in general, the drop in the measured response relative to a control, in per cent) at 10 mg/kg amounted to 39%.
Regarding `COc1cc(/C=C2\CCCN3C2=NOC[C@@H]3c2cc(F)c(F)c(F)c2)ccc1-n1cnc(C)c1`, at hERG (KCNH2), at 10 µM the inhibition was 76%. The Activity entry in the data set listed under Rattus norvegicus [8], in the data set filed under Rattus norvegicus [11] and in the data set filed under Canis familiaris was “Non-toxic” in each case. For the same compound, the half-life (commonly the time needed for the level to fall by half in the phase considered) in data set [9] is 210 min. In addition, the clearance (in general, the volume of plasma or blood freed of the substance per unit of time) in data set [10] amounted to 1.4 mL/min/kg. Besides, in data set [1], the AUC(0-t) at 6 h is 87.4 µM·h. Besides, at Gamma-secretase, the IC50 was found to be 33 nM. For the same compound, in data set [2], the Ratio stood at 607. Besides, the Vd in data set [12] was determined as 0.4 L/kg. Besides, the permeability entry in the data set on Caco-2 is “permeable”. Besides, the inhibition (usually the share of the control response that was lost under treatment) with Rattus norvegicus [13] was “Dose-dependent effect”. For the same compound, in data set [4], the Kp at 6 h came out at 0.4. Also, the concentration at 6 h in data set [5] was 2910 ng/g. For the same compound, the outcome in data set [14] and in data set [16] was inactive. The concentration at 3 h in [6] amounted to 10.7 µM. Also, the bioavailability (commonly the share of a dose that reaches the circulation, judged against a reference dose that is usually intravenous) in data set [15] came out at 100%. Moreover, the inhibition in vivo at 10 mg/kg in the data set with Rattus norvegicus [7] worked out at 62%.
Regarding `COc1cc(/C=C2\CCCN3C2=NOC[C@@H]3c2ccc(F)cc2)ccc1-n1cnc(C)c1`, in data set [1], the AUC(0-t) at 6 h was 86.5 µM·h. The IC50 at Gamma-secretase was found to be 37 nM. Also, the Ratio in data set [2] was 385. For the same compound, the figures for the concentration at 3 h in [3] and in data set [6] were 7.7 µM and 6.7 µM, respectively. Also, in data set [4], the Kp at 6 h came out at 0.8. Moreover, in [5], the concentration at 6 h worked out at 2850 ng/g. The inhibition in vivo at 10 mg/kg with Rattus norvegicus [7] came out at 53%.
For `COc1cc(/C=C2\CCCN3C[C@H](c4cc(F)c(F)c(F)c4)ON=C23)ccc1-n1cnc(C)c1`, at hERG (KCNH2), 10 µM produced 83% inhibition. This compound also displayed an AUC(0-t) at 6 h in data set [1] of 24.3 µM·h. Besides, at Gamma-secretase, the IC50 came to 48 nM. Besides, the Ratio in data set [2] was found to be 328. Moreover, the “inhibition (INH)” value in data set [17] is listed as “Not Active”. Further, in data set [4], the Kp at 6 h was determined as 1. In addition, in [5], the concentration at 6 h is 1880 ng/g. In data set [18], the Activity result is “Not Active”. In addition, the inhibition in vivo at 10 mg/kg in the data set on Rattus norvegicus [7] is 45%.
